The target of one assay is T1, P. aeruginosa LpxC (Pseudomonas aeruginosa, UniProt P47205).
T1 construct: made in house
T1 sequence (P47205 1-303): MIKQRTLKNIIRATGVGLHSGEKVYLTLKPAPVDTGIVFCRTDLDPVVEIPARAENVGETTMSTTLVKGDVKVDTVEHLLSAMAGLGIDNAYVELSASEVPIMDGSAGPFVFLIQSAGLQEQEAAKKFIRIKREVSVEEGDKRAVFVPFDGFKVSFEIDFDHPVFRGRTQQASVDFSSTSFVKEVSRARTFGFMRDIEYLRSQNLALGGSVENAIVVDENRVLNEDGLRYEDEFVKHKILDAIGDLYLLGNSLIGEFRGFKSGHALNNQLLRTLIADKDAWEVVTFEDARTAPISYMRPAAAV
Kind of assay: P. aeruginosa LpxC Inhibition Assay (LC-MS/MS). Format: biochemical. Conditions: 1 nM P. aeruginosa LpxC, 30 min pre-incubation, 2 μM UDP-3-O-(R-3-hydroxydecanoyl)-GlcNAc, pH 7.5. The essentials:
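Compounds were pre-incubated 30 min at room temperature with 1 nM LpxC, then 2 μM UDP-3-O-(R-3-hydroxydecanoyl)-GlcNAc was added in 50 mM sodium phosphate pH 7.5, 0.005% Triton X-100 for 20 min. After acetic acid quench, product was quantified by LC-MS/MS against a calibration curve. IC50 came from a four-parameter logistic fit.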

The test system of another assay is P. A. PAO1 NB52019. Kind of assay: MIC, broth microdilution (CLSI). Conditions: Pseudomonas aeruginosa, read-out: P. A. PAO1 NB52019 MIC. Format: cell-based, Pseudomonas aeruginosa. The gist of the method: (§1)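 CLSI broth microdilution in cation-adjusted Mueller-Hinton broth, about 5×10^5 CFU/mL inoculum, 1% DMSO final, 20 h at 35 °C in ambient air; MIC is lowest concentration preventing visible growth, checked by OD600. For potentiation, rifampicin was included in the inoculum at a fixed sub-inhibitory level.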

A further assay relates to E. C. ATCC 25922. Kind of assay: MIC, broth microdilution (CLSI). In kind it is cell-based, Escherichia coli. Conditions: Escherichia coli, ATCC25922, 20 h, read-out: E. C. ATCC 25922 MIC. The gist of the method: as §1
A general note: Dilution methods test growth across graded concentrations, often in twofold steps.

The test system of another assay is E. C. ATCC 29522. Kind of assay: MIC in the presence of sub-inhibitory rifampicin (potentiation/synergy). In kind it is cell-based, Escherichia coli. Conditions: +2 μg/ml rifampicin (RIF); broth microdilution, 35° C., 20 hours. The essentials: as §1
Assay [1] relates to A. B. ATCC 19606. Kind of assay: MIC, broth microdilution (CLSI). Format: cell-based, Acinetobacter baumannii. Conditions: Acinetobacter baumannii, read-out: A. B. ATCC 19606 MIC. The essentials: as §1
Assay [2] concerns A. B. ATCC 19606. Kind of assay: MIC in the presence of sub-inhibitory rifampicin (potentiation/synergy). In kind it is cell-based, Acinetobacter baumannii. The conditions noted are these: +2 μg/ml rifampicin (RIF); broth microdilution, 35° C., 20 hours. The essentials:
as §1

Where [3] appears, read: PAO1, broth microdilution, 35° C., 20 hours.
Setting [4] is: broth microdilution, 35° C., 20 hours.
Where [5] appears, read: ATCC19606, broth microdilution, 35° C., 20 hours.

The structures appear in SMILES notation. pIC50: −log10 of the molar value. Where two headings read alike, the source gives them in different places.

What is called pIC50 is the IC50 on a negative log10 scale, so that one unit is a factor of ten. A word on the MIC: it is the smallest concentration in the dilution series that meets the test's criterion for growth inhibition. `C/C=C(\C)c1cc(CC[C@](C)(C(=O)NO)S(C)(=O)=O)no1` [Compound 4.3-1, (R,E)-4-(5-(but-2-en-2-yl)isoxazol-3-yl)-N-hydroxy-2-methyl-2-(methylsulfonyl)butanamide] gave a pIC50 on P. aeruginosa LpxC of 8.52. Further, the MIC in the assay with P. A. PAO1 NB52019 (PAO1, 20 h) is 2 µg/mL; with E. C. ATCC 25922, 32 µg/mL; in the assay with A. B. ATCC 19606 [1] (ATCC19606, 20 h), over 64 µg/mL. Moreover, the “E. C. ATCC 29522 (+2 μg/ml RIF) MIC” value in the assay with E. C. ATCC 29522 was 0.5 µg/mL. Besides, the “A. B. ATCC 19606 (+2 μg/ml RIF) MIC” value with A. B. ATCC 19606 [2] worked out at 8 µg/mL.
For `C[C@@](CCc1cc(/C(F)=C/C2CC2)on1)(C(=O)NO)S(C)(=O)=O` [Compound 4.5-1, (R,Z)-4-(5-(2-cyclopropyl-1-fluorovinyl)isoxazol-3-yl)-N-hydroxy-2-methyl-2-(methylsulfonyl)butanamide], the pIC50 on P. aeruginosa LpxC was over 9.00. Also, the values for the MIC in the assay on P. A. PAO1 NB52019 (setting [3]), with E. C. ATCC 25922 (setting [4]) and with A. B. ATCC 19606 [1] (setting [5]) were 0.25 µg/mL, 2 µg/mL and over 64 µg/mL, respectively. In the assay with E. C. ATCC 29522, the “E. C. ATCC 29522 (+2 μg/ml RIF) MIC” value was determined as 0.25 µg/mL. Moreover, in the assay on A. B. ATCC 19606 [2], the “A. B. ATCC 19606 (+2 μg/ml RIF) MIC” value was found to be 0.25 µg/mL.
Regarding `C[C@@](CCc1cc(/C=C(\F)C2CC2)on1)(C(=O)NO)S(C)(=O)=O` [Compound 4.7, (R,Z)-4-(5-(2-cyclopropyl-2-fluorovinyl)isoxazol-3-yl)-N-hydroxy-2-methyl-2-(methylsulfonyl)butanamide], the pIC50 against P. aeruginosa LpxC is over 9.00. Also, the MIC was 0.5 µg/mL in the assay with P. A. PAO1 NB52019 (setting [3]), 8 µg/mL in the assay on E. C. ATCC 25922 (setting [4]) and over 64 µg/mL with A. B. ATCC 19606 [1] (setting [5]). For the same molecule, in the assay with E. C. ATCC 29522, the “E. C. ATCC 29522 (+2 μg/ml RIF) MIC” value is 0.5 µg/mL. In the assay on A. B. ATCC 19606 [2], the “A. B. ATCC 19606 (+2 μg/ml RIF) MIC” value was determined as 0.5 µg/mL.
In the case of `C[C@@](CCc1cc(C2=CCCCC2)on1)(C(=O)NO)S(C)(=O)=O` [Compound 4.8, (R)-4-(5-(cyclohex-1-en-1-yl)isoxazol-3-yl)-N-hydroxy-2-methyl-2-(methylsulfonyl)butanamide], the pIC50 at P. aeruginosa LpxC is over 9.00. Moreover, the MIC in the assay with P. A. PAO1 NB52019 (setting [3]) was 0.25 µg/mL; in the assay on E. C. ATCC 25922 (setting [4]), 4 µg/mL; in the assay on A. B. ATCC 19606 [1] (setting [5]), over 64 µg/mL. For the same molecule, in the assay on E. C. ATCC 29522, the “E. C. ATCC 29522 (+2 μg/ml RIF) MIC” value came to 0.5 µg/mL. The “A. B. ATCC 19606 (+2 μg/ml RIF) MIC” value in the assay with A. B. ATCC 19606 [2] was 1 µg/mL.

The values are drawn from patent US10029994B2, “Isoxazole hydroxamic acid compounds as LpxC inhibitors” (priority 2014, dated 2018).
